{"source": "patent US20160264655A1", "about": "“Treating cancers with drugs targeting CREB3L1” (Board of Regents, The University of Texas System, priority 2013, published 2016)", "key": {"CREB3L1 [1]": {"test_system": "CREB3L1", "assay": "CREB3L1 cleavage, immunoblot of membrane and nuclear fractions of Huh7 cells", "type": "cell-based, human", "settings": "for amount of the nuclear form of CREB3L1 (cleavage of CREB3L1): Huh7 cells, compound alone", "from_the_text": "We fractionated human hepatoma Huh7 cells (6) into membrane and nuclear fractions, and used an antibody reacting against the NH2-terminal domain of CREB3L1 (3) to examine the cleavage of CREB3L1 through immunoblot analysis."}, "Huh7 cells [2]": {"test_system": "Huh7 cells", "assay": "Proliferation of Huh7 cells", "type": "cell-based, human", "experimental": "(§1) Inasmuch as CREB3L1 was required for doxorubicin to induce expression of p21, a well-characterized inhibitor of the cell cycle (11), we determined whether CREB3L1 was also required for the drug to inhibit cell proliferation. […] These concentrations of doxorubicin were not enough to trigger apoptosis of Huh7 cells, which became apparent only when the cells were treated with 5 μM of the compound."}, "CREB3L1 [3]": {"test_system": "CREB3L1", "assay": "CREB3L1 cleavage in wild type and S1P- or S2P-deficient CHO cells", "type": "cell-based, Chinese Hamster"}, "collagen 1a1 and p21": {"test_system": "collagen 1a1 and p21", "assay": "Expression of CREB3L1 target genes in Huh7 cells", "type": "cell-based, human", "experimental": "as §1"}, "Huh7 cells [4]": {"test_system": "Huh7 cells", "assay": "Apoptosis of Huh7 cells", "type": "cell-based, human", "experimental": "as §1"}, "MCF-7 cells": {"test_system": "MCF-7 cells", "assay": "Proliferation of MCF-7 cells with or without CREB3L1 overexpression", "type": "cell-based, human", "settings": "for IC50: Homo sapiens, MCF7, 48 h, treated 2 days, read-out: IC50 for doxorubicin; for proliferation (cell counting, cellular DNA content): 15 nM for 6 days", "experimental": "(§2) If proteolytic activation of CREB3L1 is required for doxorubicin to inhibit cell proliferation, then the amount of CREB3L1 expressed in cancer cells may determine their sensitivity to doxorubicin. To test this hypothesis, we analyzed SV589 cells, an immortalized line of human fibroblasts (12), and MCF-7 cells, a line of human breast cancer cells (13). […] In this experiment, cells were treated with doxorubicin for 2 days. To determine the effect of CREB3L1 expression on proliferation of the cells treated with doxorubicin for a longer period of time, we incubated MCF-7 and MCF7/pCREB3L1(H) cells with 15 nM doxorubicin for 6 days."}, "SV589 cells": {"test_system": "SV589 cells", "assay": "Growth inhibition of SV589 cells", "type": "cell-based, human", "settings": "two siRNA duplexes", "experimental": "as §2"}, "histone γH2AX": {"test_system": "histone γH2AX", "assay": "DNA breaks, histone γH2AX marker", "type": "cell-based"}, "ceramide synthesis": {"test_system": "ceramide synthesis", "assay": "Ceramide synthesis, tritium-labeled palmitate incorporation in Huh7 cells", "type": "cell-based, human", "from_the_text": "RIP of membrane-bound transcription factors is known to be a signal transduction pathway that transfers signals from the ER to nucleus (5). […] Daunorubicin, a chemotherapeutic drug derived from doxorubicin, was reported to induce de novo synthesis of ceramide (15)."}, "human kidney tumor": {"test_system": "human kidney tumor", "assay": "Xenograft of human kidney tumors in mice", "type": "in vivo"}, "MCF7": {"test_system": "MCF7", "assay": "MCF7 xenograft in athymic nude mice", "type": "in vivo", "settings": "MCF7 overexpressing CREB3L1 vs without overexpression", "experimental": "In particular, the relationship between CREB3L1 expression and doxorubicin sensitivity is confirmed in a study of 45 lines of breast cancer cells from ATCC Breast Cancer Cell Panel. […] The relationship between CERB3L1 expression and doxorubicin sensitivity is also confirmed in vivo by injection of MCF7 with or without overexpression of CREB3L1 into athymic nude mice. These mice are then treated with different doses of doxorubicin, confirming that the dose of doxorubicin required to shrink tumors produced from MCF7 cells overexpressing CREB3L1 are lower than those required to shrink tumors generated from those without the overexpression."}, "[5]": {"settings": "patients treated with the drug; cited from earlier work"}, "cell growth": {"test_system": "cell growth", "assay": "Requirement of CREB3L1 for inhibition of cell growth", "type": "cell-based", "from_the_text": "We then determined the relationship between doxorubicin-induced cleavage of CREB3L1 and DNA breaks caused by inhibition of topoisomerase. […] However, this effect was unaffected by knockdown of CREB3L1 expression."}, "[6]": {"settings": "Huh7 cells with CREB3L1 knockdown"}}, "note": "Read-outs that look alike come from different tables or passages of the source.", "data": [{"molecule": "CCCCCCCCCCCCC/C=C/[C@@H](O)[C@H](CO)NC(=O)CCCCC", "note": "[C6-ceramide]", "values": [{"measurement": "amount of the nuclear form of CREB3L1 (cleavage of CREB3L1)", "setting": "CREB3L1 [1]", "value": "stimulated CREB3L1 cleavage"}, {"measurement": "inhibition of cell proliferation after CREB3L1 knockdown", "setting": "Huh7 cells [2]; [6]", "value": "completely abolished the ability of C6-ceramide to inhibit cell proliferation"}]}, {"molecule": "CCCCCCC(=O)CCCCCC/C=C/C[C@@H](O)[C@H](O)[C@@](N)(CO)C(=O)O", "note": "[Myriocin]", "values": [{"measurement": "inhibition of doxorubicin-induced cleavage of CREB3L1", "setting": "CREB3L1 [1]; co-treatment with doxorubicin", "value": "inhibited doxorubicin-induced cleavage of CREB3L1 in a dose-dependent manner"}, {"measurement": "effect of co-treatment on cell sensitivity to doxorubicin", "setting": "Huh7 cells [2]; co-treatment with doxorubicin", "value": "rendered the cells more resistant to doxorubicin"}]}, {"molecule": "COc1cccc2c1C(=O)c1c(O)c3c(c(O)c1C2=O)C[C@@](O)(C(=O)CO)C[C@@H]3O[C@H]1C[C@H](N)[C@H](O)[C@H](C)O1", "note": "[doxorubicin, Doxorubicin]", "values": [{"measurement": "amount of the nuclear form of CREB3L1 (cleavage of CREB3L1)", "setting": "CREB3L1 [1]", "value": "markedly raised the amount of the nuclear form of CREB3L1"}, {"measurement": "cleavage of CREB3L1 to the nuclear form", "setting": "CREB3L1 [3]; mutant CHO cells deficient in either S1P or S2P", "value": "failed to produce the nuclear form of CREB3L1"}, {"measurement": "cleavage of CREB3L1 to the nuclear form", "setting": "CREB3L1 [3]; wild type CHO cells", "value": "stimulated cleavage of CREB3L1"}, {"measurement": "induction of collagen 1a1 and p21", "setting": "collagen 1a1 and p21; Huh7-shCREB3L1 cells", "value": "markedly blunted"}, {"measurement": "expression of collagen 1a1 and p21", "setting": "collagen 1a1 and p21; Huh7-shControl cells", "value": "induced the expression of collagen 1a1 and p21"}, {"measurement": "concentration that blocks proliferation", "setting": "Huh7 cells [2]; Huh7-shCREB3L1 cells", "value": "> 500", "unit": "nM"}, {"measurement": "concentration at which apoptosis became apparent", "setting": "Huh7 cells [4]", "value": 5, "unit": "µM"}, {"measurement": "IC50", "setting": "MCF-7 cells; MCF7/pCREB3L1(H), 300-fold CREB3L1 overexpression", "value": "~1", "unit": "nM"}, {"measurement": "IC50", "setting": "MCF-7 cells; MCF7/pCREB3L1(L), 8-fold CREB3L1 overexpression", "value": 10, "unit": "nM"}, {"measurement": "IC50", "setting": "MCF-7 cells; parental MCF-7 cells", "value": 500, "unit": "nM"}, {"measurement": "proliferation (cell counting, cellular DNA content)", "setting": "MCF-7 cells; MCF7/pCREB3L1(H) cells", "value": "markedly blocked proliferation"}, {"measurement": "proliferation (cell counting, cellular DNA content)", "setting": "MCF-7 cells; MCF-7 cells", "value": "did not affect proliferation"}, {"measurement": "effect of CREB3L1 siRNA knockdown on sensitivity", "setting": "SV589 cells", "value": "more resistant"}, {"measurement": "DNA breaks (histone γH2AX)", "setting": "histone γH2AX", "value": "induced appearance of histone γH2AX"}, {"measurement": "tritium-labeled palmitate incorporated into ceramide", "setting": "ceramide synthesis", "value": "increased the amount of tritium-labeled palmitate incorporated into ceramide"}, {"measurement": "effect compared with rapamycin", "setting": "human kidney tumor; tumors expressing CREB3L1", "value": "better than rapamycin"}, {"measurement": "tumor response", "setting": "human kidney tumor; tumors expressing CREB3L1, dose about 7 times lower than clinical", "value": "profoundly inhibited"}, {"measurement": "tumor response", "setting": "human kidney tumor; tumors without CREB3L1 expression, dose about 7 times lower than clinical", "value": "did not respond"}, {"measurement": "doxorubicin sensitivity of kidney tumors", "setting": "human kidney tumor; tumors without vs with CREB3L1 by 10H1 staining, day 3 to 21", "value": "much less doxorubicin sensitivity"}, {"measurement": "dose required to shrink tumors", "setting": "MCF7", "value": "lower"}, {"measurement": "clinically relevant concentration in the serum of patients", "setting": "[5]", "value": "< 1", "unit": "µM"}]}, {"molecule": "COc1cc([C@@H]2c3cc4c(cc3[C@@H](O[C@@H]3O[C@@H]5CO[C@@H](C)O[C@H]5[C@H](O)[C@H]3O)[C@H]3COC(=O)[C@H]23)OCO4)cc(OC)c1O", "note": "[etoposide]", "values": [{"measurement": "amount of the nuclear form of CREB3L1 (cleavage of CREB3L1)", "setting": "CREB3L1 [1]", "value": "failed to induce cleavage of CREB3L1"}, {"measurement": "effect of CREB3L1 knockdown on resistance", "setting": "Huh7 cells [2]; [6]", "value": "did not increase their resistance"}, {"measurement": "effect of CREB3L1 overexpression on sensitivity", "setting": "MCF-7 cells; MCF7 cells overexpressing CREB3L1", "value": "did not increase their sensitivity"}]}, {"molecule": "CC(=O)O[C@H]1C(=O)[C@@]2(C)[C@H]([C@H](OC(=O)c3ccccc3)[C@]3(O)C[C@H](OC(=O)[C@H](O)[C@@H](NC(=O)c4ccccc4)c4ccccc4)C(C)=C1C3(C)C)[C@]1(OC(C)=O)CO[C@@H]1C[C@@H]2O", "note": "[paclitaxel]", "values": [{"measurement": "requirement of CREB3L1 to inhibit cell growth", "setting": "cell growth", "value": "not required"}]}, {"molecule": "bleomycin", "values": [{"measurement": "requirement of CREB3L1 to inhibit cell growth", "setting": "cell growth", "value": "not required"}]}]}
